Data as given in US11767282B2, “Composition biologically active to stenoma catenifer and sustained release preparation comprising the same for controlling insect pest” (Shin-Etsu Chemical Co., Ltd., priority 2021, dated 2023).
Entries after “also recorded” stand apart in the source; their conditions may differ.

Tests used:
[1] = test system: Stenoma catenifer; conditions: Stenoma catenifer males; Millar et al. 2008, Hoddle et al. 2009; cited from earlier work
[2] = test system: Stenoma catenifer; test: field trap evaluation of sustained release preparations (white adhesive trap); type: in vivo; conditions: field traps, versus (9Z)-9,13-tetradecadien-11-ynal (1) alone
Excerpt: A white adhesive trap was used for evaluation of the sustained release preparation. […] An adhesive substance is placed to the upper surface of the bottom plate, and the sustained release preparation A is directly mounted on the adhesive surface for use. In other words, the white adhesive trap has the structure in which only insect pests that come close to the sustained release preparation are captured, and the capture of untargeted insect pests are avoided as much as possible.
In the period of from September 23 and Nov. 25, 2019, the traps containing the respective sustained release preparations were installed in the orchards in which Stenoma catenifer lived. Adult male insect pests captured and killed in each trap were counted every 7 days. The control effect was evaluated by determining the relative value of the number of the insect pests captured by the sustained release preparation of Example 1 when regarding the total number of insect pests captured by the sustained release preparation of later-described Example 2 as 100.

[3] = test system: tomato fruit borer (Neoleucinodes elegantalis); conditions: added to sex pheromone main component (11E)-11-hexadecenol; Cabrera, J. Chem. Ecol. 2001; cited from earlier work

Compound	effect on attraction number in field attraction tests [1]	other results
C=CC#C/C=C\CCCCCCCC=O [(9Z)-9,13-tetradecadien-11-ynal]	highest activity among the many attractant compositions; also recorded: attracted Stenoma catenifer	–
CCCCC/C=C\C/C=C\CCCCCCCCCCCCC [(6Z,9Z)-6,9-tricosadiene]	did not affect the attraction number	–
C=CC#C/C=C/CCCCCCCC=O [(9E)-9,13-tetradecadien-11-ynal]	–	number of male adult insect pests captured compared with the comparative attractant [2]: increase in the total number of the captured insect pests
C=CC#C/C=C\CCCCCCCCO [(9Z)-9,13-tetradecadien-11-yn-1-ol]	reduced the attraction number; also recorded: attraction inhibitor	–
CCCC/C=C\CCCCCCCCCCO [(11Z)-11-hexadecenol]	–	effect of addition on attracted number [3]: greatly reduce the attracted number
